Source: patent US20180243421A1, “IMMUNOSTIMULATING AGENT” (AJINOMOTO CO., INC., priority 2015, published 2018)

Assays:
[1] = tested on: anti-OVA-specific IgG1 subclass antibody; assay: Adjuvant activity after primary immunization: anti-OVA-specific IgG1 subclass antibody in serum (Examples 13-18); type: in vivo, BALB/c mice; conditions: OVA 5 μg + 0.256 μmol in 5% αCD saline s.c., serum after 12 days; for anti-OVA-specific IgG1 subclass antibody production after primary immunization: Example 13
Experimental: 8-Week-old female BALB/c mice were divided into groups (N=6), and each group was primarily immunized by dorsal-subcutaneous administration of (1) ovalbumin (OVA) (5 μg) dissolved in saline as an antigen (OVA single administration group), (2) OVA (5 μg) and SZ83 (0.256 μmol) dissolved or dispersed in 5% αCD-added saline (SZ83 administration group), (3) OVA (5 μg) and SZ84 (0.256 μmol) dissolved or dispersed in 5% αCD-added saline (SZ84 administration group), (4) OVA (5 μg) and SZ86 (0.256 μmol) dissolved or dispersed in 5% αCD-added saline (SZ86 administration group), (5) OVA (5 μg) and SZ89 (0.256 μmol) dissolved or dispersed in 5% αCD-added saline (SZ89 administration group), (6) OVA (5 μg) and SZ90 (0.256 μmol) dissolved or dispersed in 5% αCD-added saline (SZ90 administration group), each per mouse. After 12 days, blood samples were collected under anesthesia, and the obtained serum samples were subjected to the measurement of an anti-OVA-specific IgG1 subclass antibody.
Measurement Method of Concentration of anti-OVA-specific IgG1 Subclass Antibody and anti-OVA-specific IgG2a Subclass Antibody
To a 96 well plate was added 5 μg/ml OVA at 100 μl/well, and the mixture was incubated at 4° C. overnight. After incubation, the mixture was washed three times with 200 μl of PBS-T (PBS+0.05% (v/v) Tween 20) per well, and blocked with 100 μl of 5% FCS/PBS solution per well at room temperature for 1 to for 2 hr. Thereafter, the mixture was washed three times with PBS-T (200 μl/well), a diluted serum sample (100 μl/well) or the same amount of 5% FCS/PBS solution as a control was added, to and the mixture was incubated at 37° C. for 1 hr. To calculate concentration of the antibody, the standard of an anti-OVA-specific IgG1 subclass antibody diluted with 2% FCS/PBS solution was added at 100 ng/ml, 50 ng/ml, 25 ng/ml, 12.5 ng/ml, 6.25 ng/ml, 3.125 ng/ml, 1.56 ng/ml, 0.781 ng/ml, 0.391 ng/ml, 0.195 ng/ml, 0.098 ng/ml, 0 ng/ml, per 1 well. When an anti-OVA-specific IgG2a subclass antibody was measured, the standard of an anti-OVA-specific IgG2a subclass antibody was added at 50 ng/ml, 25 ng/ml, 12,5 ng/ml, 6.25 ng/ml, 3.125 ng/ml, 1.56 ng/ml, 0.781 ng/ml, 0.391 ng/ml, 0.195 ng/ml, 0.098 ng/ml, 0.049 ng/ml, 0 ng/ml, per 1 well. […] Thereafter, the mixture was washed five times with PBS-T (200 μl/well), a diluted anti-biotin-HRP antibody was added (100 μl/well), and the mixture was incubated at 37° C. for another 30 min. Thereafter, the mixture was washed five times with PBS-T (200 μl/well), TMB substrate solution was added (100 μl/well), and the mixture was incubated at room temperature for 10- for 15 min. Thereafter, a reaction quenching liquid (2N sulfuric acid solution) was added (50 μl/well) to discontinue a color developing reaction, and the absorbance (OD Value=450 nm) was measured by a microplate reader. A standard curve was drawn from the measured OD values, and the concentration was calculated.
8-Week-old female BALB/c mice were divided into groups (N=6), and each group was primarily immunized by dorsal-subcutaneous administration of (1) ovalbumin (OVA) (5 μg) dissolved in saline as an antigen (OVA single administration group), (2) OVA (5 μg) and SZ92 (0.256 μmol) dissolved or dispersed in 5% αCD-added saline (SZ92 administration group), (3) OVA (5 μg) and SZ94 (0.256 μmol) dissolved or dispersed in 5% αCD-added saline (SZ94 administration group), (4) OVA (5 μg) and SZ95 (0.256 μmol) dissolved or dispersed in 5% αCD-added saline (SZ95 administration group), (5) OVA (5 μg) and SZ96 (0.256 μmol) dissolved or dispersed in 5% αCD-added saline (SZ96 administration group), each per mouse. After 12 days, blood samples were collected under anesthesia, and the obtained serum samples were subjected to the measurement of anti-OVA-specific IgG1 subclass antibody.

[2] = tested on: anti-influenza IgA antibody; assay: Transnasal influenza vaccine adjuvant activity: anti-influenza IgA antibody in nasal cavity wash; type: in vivo, BALB/c mice; conditions: Example 4, influenza HA vaccine 20 μl, SZ62 1 μg, Poly(I:C) 5 μg, two weeks from secondary immunization

CCCCCC(=O)N[C@@H](CC(C)C)C(=O)OC [SZ84, N-hexanoyl-L-leucine methyl ester] was tested, and the “anti-OVA-specific IgG1 subclass antibody production after primary immunization” value [1] was “show a tendency to increase”.

In the case of CCCCCCCCCCCCCCCCCCCCCC(=O)N[C@@H](CCC(=O)O)C(=O)OCCCCCC [SZ135, N-docosanoyl-L-glutamic acid hexyl ester], the “anti-OVA-specific IgG1 subclass antibody production after primary immunization as compared to the OVA single administration group” value ([1]; Example 18) is reported as “tended to increase”.

In the case of CCCCCCCCCCCCCCCC(=O)N[C@@H](CCCNC(=N)N)C(=O)N(CC)CC.Cl [SZ110, N^2-hexadecanoyl-N^1,N^1-diethyl-L-arginine amide hydrochloride salt], the “anti-OVA-specific IgG1 subclass antibody production after primary immunization as compared to the OVA single administration group” value ([1]; Example 16) is reported as “tended to increase”.

In the case of CCCCCCCCCCCCCCCCCCCCCC(=O)N[C@@H](CCCNC(=N)N)C(=O)N(CC)CC.Cl [SZ129, N^2-docosanoyl-N^1,N^1-diethyl-L-arginine amide hydrochloride salt], the “anti-OVA-specific IgG1 subclass antibody production after primary immunization as compared to the OVA single administration group” value ([1]; Example 18) is reported as “significantly increased”.

With CCCCCCCCCCCCCCCC(=O)N[C@@H](CC(C)C)C(=O)OC(C)(C)C [SZ89, N-hexadecanoyl-L-leucine tert-butyl ester] the “anti-OVA-specific IgG1 subclass antibody production after primary immunization” value [1] was “show a tendency to increase”.

For CCCCCCCCCCCCCCCC(=O)N[C@@H](CO)C(=O)OC [SZ96, N-hexadecanoyl-L-serine methyl ester], the “anti-OVA-specific IgG1 subclass antibody production after primary immunization as compared to the OVA single administration group” value ([1]; Example 14) was “tended to increase”.

CCCCCCOC(=O)[C@H](CCCNC(=N)N)NC(=O)CCCCC.Cl [SZ130, N^2-hexanoyl-L-arginine hexyl ester hydrochloride salt] was tested, and the “anti-OVA-specific IgG1 subclass antibody production after primary immunization as compared to the OVA single administration group” value ([1]; Example 18) was “tended to increase”.

CCCCCCCCCCCCCCCCCCCCCC(=O)N[C@@H](CC(C)C)C(=O)OCCCCCC [SZ124, N-docosanoyl-L-leucine hexyl ester] was tested, and the “anti-OVA-specific IgG1 subclass antibody production after primary immunization as compared to the OVA single administration group” value ([1]; Example 17) was “tended to increase”.

With CCCCCCCCCCCCCCCC(=O)N1CCC[C@H]1C(=O)OC [SZ95, N-hexadecanoyl-L-proline methyl ester] the “anti-OVA-specific IgG1 subclass antibody production after primary immunization as compared to the OVA single administration group” value ([1]; Example 14) was “tended to increase”.

For COC(=O)[C@H](CC(C)C)NC(C)=O [SZ83, N-acetyl-L-leucine methyl ester], the “anti-OVA-specific IgG1 subclass antibody production after primary immunization” value [1] was “show a tendency to increase”.

With “polyinosinic polycytidylic acid [Poly(I:C), reference compound]” the “anti-influenza IgA antibody production in nasal cavity wash as compared to the influenza vaccine single administration group” value [2] was “a significant increase was not found”.

For CCCCCCCCCCCCCCCCCCCCCC(=O)N[C@@H](CCCNC(=N)N)C(N)=O.Cl [SZ128, N^2-docosanoyl-L-arginine amide hydrochloride salt], the “anti-OVA-specific IgG1 subclass antibody production after primary immunization as compared to the OVA single administration group” value ([1]; Example 18) was “significantly increased”.

With CCCCCCCCCCCCCCCCCCCCCC(=O)N[C@@H](CC(C)C)C(=O)N(CC)CC [SZ125, N^2-docosanoyl-N^1,N^1-diethyl-L-leucinamide] the “anti-OVA-specific IgG1 subclass antibody production after primary immunization as compared to the OVA single administration group” value ([1]; Example 17) was “tended to increase”.

For CCCCCCCCCCCCCCCCCCCCCC(=O)N[C@@H](CCCNC(=N)N)C(=O)OCCCCCC.Cl [SZ121, N^2-docosanoyl-L-arginine hexyl ester hydrochloride salt], the “anti-OVA-specific IgG1 subclass antibody production after primary immunization as compared to the OVA single administration group” value ([1]; Example 17) was “significantly increased”.

In the case of CCCCCCCCCCCCCCCC(=O)N[C@@H](CCC(=O)O)C(=O)OCCCCCC [SZ134, N-hexadecanoyl-L-glutamic acid hexyl ester], the “anti-OVA-specific IgG1 subclass antibody production after primary immunization as compared to the OVA single administration group” value ([1]; Example 18) is reported as “tended to increase”.

In the case of CCCCCCCCCCCCCCCC(=O)N[C@@H](Cc1c[nH]cn1)C(=O)OC [SZ94, N-hexadecanoyl-L-histidine methyl ester], the “anti-OVA-specific IgG1 subclass antibody production after primary immunization as compared to the OVA single administration group” value ([1]; Example 14) is reported as “tended to increase”.
